Results on three molecules are retold here after patent EP0736009B1, “N-OXIDES OF 4-ARYLPIPERAZINES AND 4-ARYLPIPERIDINES AS ANTIPSYCHOTIC DRUGS” (ORTHO PHARMACEUTICAL CORPORATION, priority 1993, dated 1995).

The term Ki denotes a measure of affinity in units of concentration, obtained from inhibition or displacement. Read a high Ki as weaker binding.

Series [1] addresses T1, D-2 (dopamine-2) receptors (Rattus norvegicus, UniProt P61169).
T1 construct: The D2 assay employed a P2 fraction from the striatum; from tissue; host or cells: rat striatum, P2 fraction (synaptosomal membranes)
Briefly: Dopamine D2 receptor binding assay (3H-spiperone, striatal P2 fraction). Further details: species or system male, Wistar rats. The settings on record: rat striatum P2 fraction; 3H-spiperone 0.05 nM; 45 min at 37°C. From the text: The antipsychotic activity of the compounds of the invention may be determined by the Block of Conditioned Avoidance Responding (Rat) test (CAR), references being Cook, L. and E. Weidley in Ann. N.Y. Acad. Sci., 1957, 6, 740-752, and Davidson, A.B. and E. Weidley in Life Sci., 1976, 18, 1279-1284. A reading of -20% in the CAR test was generally taken to represent a minimum value for a compound to be designated as active at a given dose. In addition, the affinity of the compounds for several receptors found in the central nervous system was evaluated; the affinity for the D-2 (dopamine-2) receptors is also listed in Table 1. As modulation of this receptor is generally recognized to be beneficial in the treatment of schizophrenia (G. P. Reynolds Trends Pharmacol. Sci. 1992, 13, 116), affinity for this receptor indicates potential utility for the compounds. […].
The dopamine D2 binding activity of compounds was determined using a P2 fraction (synaptosomal membranes) prepared from male, Wistar rats. The D2 assay employed a P2 fraction from the striatum, the ligand ^3H-spiperone at a concentration of 0.05 nM, and 1 mM haloperidol as a blank determinant. […].
The data from this assay were analyzed by calculating the percent inhibition of the binding of the tritiated ligands by given concentrations of the test compound. KI values, where given, were obtained from the logit analysis of concentration-inhibition curves.

Series [2] deals with Rat. As to the kind of experiment: Block of Conditioned Avoidance Responding (Rat) test (CAR). The settings on record: for Loss of escape: % failures to escape (group mean), measure of general sedative potential, at CAR 15 mg/kg ip; for % CAR at 15 mg/kg: mean % change in CAR vs vehicle pretreatment day, 15 mg/kg ip, negative number = blockade of CAR. It counts as in vivo, Male, Fischer 344 rats. The source says: The antipsychotic activity of the compounds of the invention may be determined by the Block of Conditioned Avoidance Responding (Rat) test (CAR), references being Cook, L. and E. Weidley in Ann. N.Y. Acad. Sci., 1957, 6, 740-752, and Davidson, A.B. and E. Weidley in Life Sci., 1976, 18, 1279-1284. A reading of -20% in the CAR test was generally taken to represent a minimum value for a compound to be designated as active at a given dose. In addition, the affinity of the compounds for several receptors found in the central nervous system was evaluated; the affinity for the D-2 (dopamine-2) receptors is also listed in Table 1. As modulation of this receptor is generally recognized to be beneficial in the treatment of schizophrenia (G. P. Reynolds Trends Pharmacol. Sci. 1992, 13, 116), affinity for this receptor indicates potential utility for the compounds. […] Block of Conditioned Avoidance Responding (Rat) Apparatus: Rat operant chambers, housed within sound attenuated booths, both from […] Instruments Ltd., were used in this test. The test chamber (8" H x […] D) is constructed of aluminum and plexiglass with floor grid bars of stainless-steel (1/8" O.D.) spaced 9/16" apart. A stainless-steel operation level 1-1/2" wide projects 3/4" into the chamber and is positioned 2-2/8" above the grid floor. The shock stimulus is delivered via the grid floor by a Coulbourn Instruments solid state module. The parameters of the test and the collection of data are controlled automatically. Training: Male, Fischer 344 rats obtained from Charles River (Kingston, NY) weighing more than 200 g, are individually housed with chow and water provided ad libitum. The rats are trained for two weeks to approach criterion levels in the avoidance test (90% avoidance rate). One-hour training sessions are run at about the same time each day for four or five days a week. The training session consists of 120 trials, with the conditioned stimuli presented every 30 sec. A trial begins with presentation of the conditioned stimuli (a light and a tone). If the rat responds by depressing the operant lever during the 15-second presentation of the conditioned stimuli, the trial is terminated and the animal is credited with a CAR. Failure to respond during the conditioned stimuli causes the presentation of the unconditioned stimulus (UCS), a 0.7 mA shock which is accompanied by a light and tone for five seconds. If the rat depressed the lever within the ten-second period, the shock and trial are terminated and an escape response recorded. If the rat fails to depress the lever during the UCS (shock), the trial is terminated after ten seconds of shock and the absence of a response is scored as a failure to escape. […] presses have no effect. If a rat performs at the 90% CAR level for two weeks, it is then run twice a week on the test schedule (see below) until baseline performance stabilized. Before any drug is administered, two weeks of CAR at a rate of 90% or better is required. The percent change in CAR on the drug treatment day compared to vehicle pretreatment day is the key measure. The percent change (% change) in CAR is determined using the following formula: % change CAR = ((% CAR for Day 2/% CAR for Day 1) x 100)-100 [formula] A negative number indicates a blockade of CAR, whereas a positive number would indicate increased CAR. The test results are reported as the mean % change for the group of rats. Failure to escape, a measure of the general sedative potential of the compound, was calculated for each animal as follows: % Failures = # of Failures to Escape/# of trials [formula] The % failures, viz., loss of escape, is also reported as a group mean. Failures to escape are monitored closely and a session is terminated if ten failures occurred. ED50 values and 95% confidence limits are calculated using linear regression analysis. […]

T1 sequence (P61169 whole entry): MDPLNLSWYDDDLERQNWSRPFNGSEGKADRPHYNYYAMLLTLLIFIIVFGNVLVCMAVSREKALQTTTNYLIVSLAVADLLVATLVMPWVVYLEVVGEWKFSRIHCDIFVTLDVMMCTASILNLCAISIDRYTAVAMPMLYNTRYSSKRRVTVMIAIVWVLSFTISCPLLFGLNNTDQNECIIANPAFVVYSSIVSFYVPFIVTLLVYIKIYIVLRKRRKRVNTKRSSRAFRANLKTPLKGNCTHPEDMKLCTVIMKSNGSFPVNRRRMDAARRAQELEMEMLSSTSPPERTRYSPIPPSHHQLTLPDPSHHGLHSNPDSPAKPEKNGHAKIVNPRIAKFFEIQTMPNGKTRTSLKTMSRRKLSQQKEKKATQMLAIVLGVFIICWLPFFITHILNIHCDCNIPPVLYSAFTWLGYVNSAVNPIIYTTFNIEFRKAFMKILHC

Turning to `CC(C)Oc1ccccc1C1CC[N+]([O-])(Cc2cccc(C(=O)N3[C@H](C)CCC[C@@H]3C)c2)CC1` (relative stereo) [Compound 3, 1-[3-[[4-[2-(1-Methylethoxy)phenyl]-1-piperidinyl-1-oxide]methyl]benzoyl]-cis-2.6-dimethylpiperidine], in series [1], the Ki is 371 nM. Further, in series [2], the Loss of escape stood at 0.4% and the “% CAR at 15 mg/kg” value is -37.7%.
For `CC(C)Oc1ccccc1[N+]1([O-])CCN(Cc2cccc(C(=O)N3CCCCC3)c2)CC1` [Compound 1, 1-[3-[[4-[2-(1-Methylethoxy)ehenyl]-4-oxide-1-piperazinyl]methyl]benzoyl]piperidine] the same measures were 140 nM, 44.8% and -91.7%.
The corresponding values for `CC(C)Oc1ccccc1N1CC[N+]([O-])(Cc2cccc(C(=O)N3CCCCC3)c2)CC1` [Compound 2, 1-[3-[[4-[2-(1-Methylethoxy)phenyl]-1-piperazinyl-1-oxide]methyl]benzoyl]piperidine] are 355 nM, 31.5% and -87.6%.
